# Reference: patent publication US9999611B2, “SIRT 1 activator including syringaresinol” (AMOREPACIFIC CORPORATION, priority 2011, dated 2018)
# Legend:
# [1] = test system: Human hepatocytes; test: Fatty acid oxidation promoting ability (3H2O in medium), hepatocytes; format: cell-based; conditions: 50 μM, vs non-treated group, FIG. 11
# Experimental: (§1) Human adipocytes, hepatocytes and myocytes were treated with 50 μM syringaresinol in substantially the same manner as in Test Example 3. The cells were washed with PBS and cultured for a day in a medium for fatty acid oxidation analysis. The medium was recovered and the amount of ^3H2O was measured.
# [2] = test system: SIRT1; test: SIRT1 expression recovering effect in gingival fibroblasts treated with cigarette smoke condensate (PCR); format: cell-based, human; conditions: cigarette smoke condensate 100 μg/mL, syringaresinol 50 or 100 μg/mL, 2 days, FIG. 2
# Experimental: Experiment was conducted to evaluate whether syringaresinol can recover SIRT1 expression that has been decreased due to smoking in gingival fibroblasts.
# Gingival fibroblasts were obtained from tissue biopsies of patients having healthy gingiva. The tissue biopsy was put in a 15-mL test tube holding Dulbecco's modified Eagle's medium (DMEM, Gibco Co., USA) and blood and impurities were removed by washing 3 times. Then, the tissue biopsy was transferred onto a 100-mm tissue culture dish holding DMEM containing 10% fetal bovine serum (Gibco Co., USA) and 1% antibiotics (penicillin G 10,000 units/mL, amphotericin B 25 μg/mL, Gibco Co., USA) and finely cut to 1 mm^2 using a No. 15 blade. Then, 5-6 pieces were uniformly distributed on a 60-mm culture dish. After incubation for about 30 minutes in a 5% CO2 incubator at 37° C. and 100% humidity such that the tissue was uniformly attached on the bottom of the culture dish, 3 mL of DMEM containing 10% fetal bovine serum and 1% antibiotics was added. The culture medium was exchanged with 2-3 day intervals until a single layer of cells was formed. […]
# The gingival fibroblasts subcultured 5-6 times were seeded onto a 24-well plate, with 1×10^4 cells per well. […] The expression pattern of the SIRT1 and GAPDH genes was monitored using the synthesized cDNA and predesigned primers and probes (Applied Biosystems; SIRT1, Hs01009006_m1; GAPDH, Hs99999905_m1). […]
# [3] = test system: ACO, CPT1, mCAD; test: Expression of fatty acid oxidation-related genes (qRT-PCR); format: cell-based, human; conditions: 50 μM, vs DMSO control
# Experimental: Human adipocytes, hepatocytes and myocytes were treated with 50 μM syringaresinol and washed with PBS in substantially the same manner as in Test Example 3. RNA was extracted from the cells and cDNA was synthesized therefrom. The change in expression pattern of fatty acid synthesis-related genes such as ADD1/SREBP1c, ACC, FAS, etc. and fatty acid oxidation-related genes such as ACO, CPT1, mCAD, etc. was measured by qRT-PCR.
# [4] = test system: Human adipocytes; test: Fatty acid oxidation promoting ability (3H2O in medium), adipocytes; format: cell-based; conditions: 50 μM, vs non-treated group, FIG. 11
# Experimental: as §1
# [5] = test system: aged retinal cells (ARPE-19); test: Mitochondrial function recovering effect in aged retinal cells: energy (ATP) production; format: cell-based, human; conditions: compared to cells treated only with DMSO, FIG. 16
# Experimental: (§2) The aging of retinal cells was induced while treating with 50 or 100 μM syringaresinol or with DMSO as a negative control, in substantially the same manner as in Test Example 7. For evaluation of mitochondrial function recovering effect, the level of energy (ATP) and reactive oxygen species production in retinal cells was investigated. The energy production was determined by recovering the aged cells after washing with PBS and then with hot water and measuring luminescence using the ATP determination kit (Molecular Probes, Eugene, Oreg., USA) and the Tecan system (Infinite M200, Tecan, Austria). The reactive oxygen species production was measured using a flow cytometer (BD Biosciences, San Jose, Calif., USA) after washing the aged cells with PBS and staining them with the reactive oxygen species detection reagent (H2DCFDA, Invitrogen, Carlsbad, Calif., USA).
# [6] = test system: aged retinal cells (ARPE-19); test: Mitochondrial function recovering effect in aged retinal cells: reactive oxygen species production (H2DCFDA, flow cytometer); format: cell-based, human; conditions: compared to cells treated only with DMSO, FIG. 16
# Experimental: as §2
# [7] = test system: Human myocytes; test: Fatty acid oxidation promoting ability (3H2O in medium), myocytes; format: cell-based; conditions: 50 μM, vs non-treated group, FIG. 11
# Experimental: as §1
# [8] = test system: gingival fibroblasts; test: Cellular activity promoting effect in gingival fibroblasts (MTT assay); format: cell-based, human; conditions: cigarette smoke condensate 100 μg/mL, syringaresinol 50 or 100 μg/mL, 2 days, FIG. 3
# Experimental: Gingival fibroblasts subcultured for 5-6 times in substantially the same manner as in Test Example 1 were seeded onto a 24-well plate, with 1×10^4 cells per well. After culturing for 1 day, cigarette smoke condensate was added with a concentration of 100 μg/mL in substantially the same manner as in Test Example 1 and the syringaresinol obtained in Example was added after dissolving in DMSO to a concentration of 50 or 100 μg/mL. A control group was treated with DMSO corresponding to 1/1000 of the volume of the culture medium. Also, a group which was treated with neither the cigarette smoke condensate nor the test substance was prepared. After culturing for 2 days and adding 300 μL of 3-(4,5-dimethylthiazol-2-yl)-2,5-diphenyltetrazolium bromide (MTT; Sigma, USA) dissolved in physiological saline per each well, the cells were cultured for 4 hours. After removing the culture medium and dissolving formazan crystals by adding 200 μL of dimethyl sulfoxide (DMSO; Junsei, Japan), absorbance was measured at 540 nm using an ELISA reader (Spectra MAX 250, Molecular Devices Co., USA). Each experiment was repeated 3 times.
smiles,measurement,setting,value
COc1cc(C2OCC3C(c4cc(OC)c(O)c(OC)c4)OCC23)cc(OC)c1O (stereo not drawn) [syringaresinol],fatty acid oxidation,[1],increased fatty acid oxidation
same,SIRT1 expression,[2],"increased SIRT1 expression in gingival fibroblasts, which had been decreased due to smoking, in a concentration-dependent manner"
same,expression of fatty acid oxidation promoting genes,"[3]; human adipocytes, FIG. 8",increased the expression of fatty acid oxidation promoting genes
same,expression of fatty acid oxidation promoting genes,"[3]; human hepatocytes, FIG. 9",increased the expression of fatty acid oxidation promoting genes
same,expression of fatty acid oxidation promoting genes,"[3]; human myocytes, FIG. 10",increased the expression of fatty acid oxidation promoting genes
same,fatty acid oxidation,[4],increased fatty acid oxidation
same,increased energy (ATP) production,[5]; 50 μM,about 21%
same,increased energy (ATP) production,[5]; 100 μM,~33%
same,decreased reactive oxygen species production,[6]; 50 μM,about 7%
same,decreased reactive oxygen species production,[6]; 100 μM,~11%
same,fatty acid oxidation,[7],increased fatty acid oxidation
same,"cellular activity (MTT, absorbance at 540 nm)",[8],"recovered cellular activity, which had been decreased due to smoking, to a level substantially comparable to the normal level"
